Reference: patent publication US20230097157A1, “Bicyclic Pyridin-2-one and pyrimidin-4-one Derivatives Useful As a Factor XIa Inhibitors” (Janssen Pharmaceutica NV, priority 2021, published 2023)
Where two headings read alike, the source gives them in different places.

Assays:
[1] = target: Factor XIa (Homo sapiens, UniProt P03951); test: Factor XIa inhibition assay (FLINT) utilizing a fluorophore-quencher pair peptide substrate 5Fam-[…]-K5Tamra; assay type: biochemical; conditions: kinetic (KIN) reads, read-out: FXIa KIN Inh IC50
Outline: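 Compounds were tested as 11-point 3-fold dilutions from 100 nM (2% DMSO). They were preincubated 30 min with FXIa in 50 mM Tris pH 7.5, 5 mM CaCl2, then 15 μM fluorophore-quencher peptide was added. Cleavage was followed at 485/520 nm over 30 min, and IC50 was derived by 4-parameter logistic fit.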

[2] = target: human plasma kallikrein (Homo sapiens, UniProt P03952); test: Kallikrein inhibition assay (FLINT) utilizing a quenched AMC peptide substrate Z-Gly-Pro-Arg-AMC; assay type: biochemical; conditions: kinetic (KIN) reads, read-out: Kallikrein KIN Inh IC50
Outline: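 IC50 from a 4-parameter logistic fit of % inhibition from 11 concentrations (3-fold, top 1 μM, 2% DMSO). Compound pre-incubated 30 min with 2 nM enzyme in Tris pH 7.5, NaCl, CaCl2, BSA, CHAPS, then 50 μM AMC peptide substrate added. Fluorescence (340/440 nm) followed every 5 min for 30 min at room temperature.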

Sequence of Factor XIa (P03951 388-625 limits assumed): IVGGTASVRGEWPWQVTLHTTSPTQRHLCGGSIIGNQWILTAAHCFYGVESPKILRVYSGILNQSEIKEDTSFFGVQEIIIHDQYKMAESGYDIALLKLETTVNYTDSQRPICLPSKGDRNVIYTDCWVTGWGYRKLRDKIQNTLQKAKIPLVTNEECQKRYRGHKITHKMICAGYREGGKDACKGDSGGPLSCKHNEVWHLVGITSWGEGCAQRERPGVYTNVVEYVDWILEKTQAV
Sequence of Factor XIa (P03951 19-387 partner limits assumed): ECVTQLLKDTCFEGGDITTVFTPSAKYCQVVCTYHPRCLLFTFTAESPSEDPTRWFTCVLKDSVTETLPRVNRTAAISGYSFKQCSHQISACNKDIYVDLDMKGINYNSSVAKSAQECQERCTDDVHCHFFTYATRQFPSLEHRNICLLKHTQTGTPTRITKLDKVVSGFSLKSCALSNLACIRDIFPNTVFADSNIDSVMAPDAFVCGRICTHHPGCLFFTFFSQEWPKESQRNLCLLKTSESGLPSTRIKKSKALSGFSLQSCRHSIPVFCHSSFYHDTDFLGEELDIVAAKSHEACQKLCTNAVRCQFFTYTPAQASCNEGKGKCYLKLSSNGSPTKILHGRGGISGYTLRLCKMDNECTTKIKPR
Sequence of human plasma kallikrein (P03952 391-638 limits assumed): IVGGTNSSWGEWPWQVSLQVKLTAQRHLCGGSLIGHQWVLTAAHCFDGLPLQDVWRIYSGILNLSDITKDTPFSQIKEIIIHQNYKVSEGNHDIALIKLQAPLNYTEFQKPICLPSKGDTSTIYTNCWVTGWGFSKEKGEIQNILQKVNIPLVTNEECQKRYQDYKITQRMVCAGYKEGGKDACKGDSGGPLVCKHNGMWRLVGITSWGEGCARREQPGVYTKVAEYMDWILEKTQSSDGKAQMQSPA
Sequence of human plasma kallikrein (P03952 20-390 partner limits assumed): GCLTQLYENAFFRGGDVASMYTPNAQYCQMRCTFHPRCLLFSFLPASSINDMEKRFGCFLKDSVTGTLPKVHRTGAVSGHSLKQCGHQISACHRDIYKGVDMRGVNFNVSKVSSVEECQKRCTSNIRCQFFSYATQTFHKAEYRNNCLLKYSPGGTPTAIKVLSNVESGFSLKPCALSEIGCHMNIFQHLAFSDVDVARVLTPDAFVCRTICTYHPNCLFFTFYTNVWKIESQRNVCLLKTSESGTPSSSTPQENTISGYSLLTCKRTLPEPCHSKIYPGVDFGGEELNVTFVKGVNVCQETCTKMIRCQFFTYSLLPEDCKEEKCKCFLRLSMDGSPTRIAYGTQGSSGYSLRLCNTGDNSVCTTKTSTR

Structure (SMILES) | IC50 ([1]; unit μM) | IC50 ([2]; unit μM) | IC50 ([1]; values in nM) | IC50 ([2]; values in nM)
Nc1ccc(-c2cnc([C@H]3CC4(CC4)c4cc(-c5c(-n6cnnn6)ccc(Cl)c5F)cc(=O)n43)[nH]2)c(F)n1 [Example 24, (R)-3′-(5-(6-Amino-2-fluoropyridin-3-yl)-1H-imidazol-2-yl)-7′-(3-chloro-2-fluoro-6-(1H-tetrazol-1-yl)phenyl)-2′,3′-dihydro-5′H-spiro[cyclopropane-1,1′-indolizin]-5′-one] | 1.1 µM | > 10 µM | – | –
COC(=O)Nc1ccc(-c2cnc([C@H]3C[C@H](C)c4nc(-c5c(-n6cnnn6)ccc(Cl)c5F)cc(=O)n43)[nH]2)cc1 (stereo in doubt) [Example 124, Methyl (4-(2-((6*R,8*S)-2-(3-Chloro-2-fluoro-6-(1H-tetrazol-1-yl)phenyl)-8-methyl-4-oxo-4,6,7,8-tetrahydropyrrolo[1,2-a]pyrimidin-6-yl)-1H-imidazol-5-yl)phenyl)carbamate] | – | – | 0.0083 µM | 0.0529 µM
C[C@H]1C[C@@H](c2ncc(-c3ccn4nccc4c3)[nH]2)n2c1cc(-c1c(-n3cnnn3)ccc(Cl)c1F)cc2=O (stereo in doubt) [Example 53, (1*S,3*S)-7-(3-Chloro-2-fluoro-6-(1H-tetrazol-1-yl)phenyl)-1-methyl-3-(5-(pyrazolo[1,5-a]pyridin-5-yl)-1H-imidazol-2-yl)-2,3-dihydroindolizin-5(1H)-one] | – | – | 0.0437 µM | 0.054 µM
O=c1cc(-c2c(-n3cnnn3)ccc(Cl)c2F)nc2n1C(c1nc(F)c(-c3ccnc(CO)c3F)[nH]1)CC21CC1 (racemic) [Example 69, 2′-(3-Chloro-2-fluoro-6-(1H-tetrazol-1-yl)phenyl)-6′-(4-fluoro-5-(3-fluoro-2-(hydroxymethyl)pyridin-4-yl)-1H-imidazol-2-yl)-6′,7′-dihydro-4′H-spiro[cyclopropane-1,8′-pyrrolo[1,2-a]pyrimidin]-4′-one] | – | – | 0.0194 µM | 0.118 µM
CC(O)c1nccc(-c2cnc([C@H]3CC4(CC4)c4cc(-c5c(-n6cnnn6)ccc(Cl)c5F)cc(=O)n43)[nH]2)c1F (single isomer, unassigned) [Example 6, (3′R)-7′-(3-Chloro-2-fluoro-6-(1H-tetrazol-1-yl)phenyl)-3′-(5-(3-fluoro-2-(1-hydroxyethyl)pyridin-4-yl)-1H-imidazol-2-yl)-2′,3′-dihydro-5′H-spiro[cyclopropane-1,1′-indolizin]-5′-one] | – | – | 0.017 µM | 0.0728 µM
Nc1ccc(-c2cnc(C3CCCc4cc(-c5c(-n6cnnn6)ccc(Cl)c5F)cc(=O)n43)[nH]2)c(F)n1 (single isomer, unassigned) [Cmpd (III), (*S)-6-(5-(6-amino-2-fluoropyridin-3-yl)-1H-imidazol-2-yl)-2-(3-chloro-2-fluoro-6-(1H-tetrazol-1-yl)phenyl)-6,7,8,9-tetrahydro-4H-quinolizin-4-one] | – | – | 0.0012 µM | 0.1 µM
Cc1c(-c2cnc([C@H]3C[C@H](C)c4cc(-c5c(-n6cnnn6)ccc(Cl)c5F)cc(=O)n43)[nH]2)ccnc1C#N (relative stereo) [Example 31, 4-(2-((1S*,3R*)-7-(3-Chloro-2-fluoro-6-(1H-tetrazol-1-yl)phenyl)-1-methyl-5-oxo-1,2,3,5-tetrahydroindolizin-3-yl)-1H-imidazol-5-yl)-3-methylpicolinonitrile] | – | – | 0.25 µM | 0.635 µM
Cc1nc(N)ccc1-c1cnc([C@@H]2C[C@H](C)c3cc(-c4c(-n5cnnn5)ccc(Cl)c4F)cc(=O)n32)[nH]1 (relative stereo) [Example 51, (1*S,3*S)-3-(5-(6-Amino-2-methylpyridin-3-yl)-1H-imidazol-2-yl)-7-(3-chloro-2-fluoro-6-(1H-tetrazol-1-yl)phenyl)-1-methyl-2,3-dihydroindolizin-5(1H)-one] | – | – | 0.0008 µM | 0.0492 µM
COC(=O)Nc1ccc(-c2cnc([C@H]3C[C@@H](C)c4nc(-c5c(-n6cnnn6)ccc(Cl)c5F)cc(=O)n43)[nH]2)cc1 (stereo in doubt) [Example 127, Methyl (4-(2-((6*R,8*R)-2-(3-Chloro-2-fluoro-6-(1H-tetrazol-1-yl)phenyl)-8-methyl-4-oxo-4,6,7,8-tetrahydropyrrolo[1,2-a]pyrimidin-6-yl)-1H-imidazol-5-yl)phenyl)carbamate] | – | – | 0.19 µM | 0.723 µM
C[C@H]1C[C@@H](c2ncc(-c3cn[nH]c3)[nH]2)n2c1nc(-c1c(-n3cnnn3)ccc(Cl)c1F)cc2=O (stereo in doubt) [Example 107, (6*S,8*S)-6-(5-(1H-Pyrazol-4-yl)-1H-imidazol-2-yl)-2-(3-chloro-2-fluoro-6-(1H-tetrazol-1-yl)phenyl)-8-methyl-7,8-dihydropyrrolo[1,2-a]pyrimidin-4(6H)-one] | – | – | 0.0024 µM | 0.0959 µM
C[C@H]1C[C@@H](c2ncc(-c3ccnc(C#N)c3)[nH]2)n2c1cc(-c1c(-n3cnnn3)ccc(Cl)c1F)cc2=O (relative stereo) [Example 32, 4-(2-((1S,3S)-7-(3-Chloro-2-fluoro-6-(1H-tetrazol-1-yl)phenyl)-1-methyl-5-oxo-1,2,3,5-tetrahydroindolizin-3-yl)-1_H-imidazol-5-yl)picolinonitrile] | – | – | 0.0112 µM | 0.0907 µM
Nc1ccc(-c2cnc([C@@H]3CC4(CC4)c4cc(-c5cc(Cl)ccc5-n5cnnn5)cc(=O)n43)[nH]2)c(F)n1 (single isomer, unassigned) [Example 4] | – | > 1 µM | > 0.1 µM | –

Continued by falling IC50 ([1]; values in nM), values first:

IC50 ([1]; unit μM) | IC50 ([2]; unit μM) | IC50 ([1]; values in nM) | IC50 ([2]; values in nM) | Structure (SMILES)
– | > 10 µM | 0.43 µM | – | C[C@H]1C[C@@H](c2cnc(-c3ccc(N)nc3F)[nH]2)n2c1cc(-c1c(-n3cnnn3)ccc(Cl)c1F)cc2=O (stereo in doubt) [Example 54, (1 S*,3S*)-3-(2-(6-Amino-2-fluoropyridin-3-yl)-1H-imidazol-5-yl)-7-(3-chloro-2-fluoro-6-(1H-tetrazol-1-yl)phenyl)-1-methyl-2,3-dihydroindolizin-5(1H)-one]
– | – | 0.0429 µM | 0.539 µM | C[C@@H]1C[C@H](c2ncc(-c3ccnc(CN)c3)[nH]2)n2c1cc(-c1c(-n3cnnn3)ccc(Cl)c1F)cc2=O (relative stereo) [Example 38, (1*R,3*R)-3-(5-(2-(Aminomethyl)pyridin-4-yl)-1H-imidazol-2-yl)-7-(3-chloro-2-fluoro-6-(1H-tetrazol-1-yl)phenyl)-1-methyl-2,3-dihydroindolizin-5(1H)-one]
– | – | 0.0196 µM | 0.167 µM | CC1CC(c2ncc(-c3ccnc(CO)c3F)[nH]2)n2c1nc(-c1c(-n3cnnn3)ccc(Cl)c1F)cc2=O (single isomer, unassigned) [Example 77, (6S*)-2-(3-Chloro-2-fluoro-6-(1H-tetrazol-1-yl)phenyl)-6-(5-(3-fluoro-2-(hydroxymethyl)pyridin-4-yl)-1H-imidazol-2-yl)-8-methyl-7,8-dihydropyrrolo[1,2-a]pyrimidin-4(6H)-one]
– | – | 0.005 µM | 0.24 µM | C[C@H]1C[C@@H](c2ncc(-c3cnc(N)s3)[nH]2)n2c1cc(-c1c(-n3cnnn3)ccc(Cl)c1F)cc2=O [Example 23, (1S,3S)-3-(5-(2-Aminothiazol-5-yl)-1H-imidazol-2-yl)-7-(3-chloro-2-fluoro-6-(1H-tetrazol-1-yl)phenyl)-1-methyl-2,3-dihydroindolizin-5(1H)-one]
– | – | 0.0015 µM | 0.0277 µM | C[C@H]1C[C@H](c2ncc(-c3ccnc(N)c3F)[nH]2)n2c1nc(-c1c(-n3cnnn3)ccc(Cl)c1F)cc2=O (relative stereo) [Example 87, (6R*,8S*)-6-(5-(2-amino-3-fluoropyridin-4-yl)-1H-imidazol-2-yl)-2-(3-chloro-2-fluoro-6-(1H-tetrazol-1-yl)phenyl)-8-methyl-7,8-dihydropyrrolo[1,2-a]pyrimidin-4(6H)-one]
– | – | 0.0005 µM | 0.0395 µM | C[C@H]1C[C@@H](c2ncc(-c3ccc(N)nc3F)[nH]2)n2c1cc(-c1cc(Cl)ccc1-n1cnnn1)cc2=O [Example 29, (1S,3S)-3-[5-(6-amino-2-fluoro-3-pyridyl)-1H-imidazol-2-yl]-7-[5-chloro-2-(tetrazol-1-yl)phenyl]-1-methyl-2,3-dihydro-1H-indolizin-5-one]
– | – | 0.0005 µM | 0.0208 µM | C[C@H]1C[C@@H](c2nc(-c3ncc(N)nc3Cl)c[nH]2)n2c1nc(-c1c(-n3cnnn3)ccc(Cl)c1F)cc2=O [Example 93, (6S,8S)-6-(4-(5-Amino-3-chloropyrazin-2-yl)-1H-imidazol-2-yl)-2-(3-chloro-2-fluoro-6-(1H-tetrazol-1-yl)phenyl)-8-methyl-7,8-dihydropyrrolo[1,2-a]pyrimidin-4(6H)-one]
– | – | 0.0004 µM | 0.0031 µM | C[C@@H]1C[C@@H](c2ncc(-c3ccc(N)nc3Cl)[nH]2)n2c1cc(-c1c(-n3cnnn3)ccc(Cl)c1F)cc2=O [Example 58, (1R,3S)-3-(5-(6-Amino-2-chloropyridin-3-yl)-1H-imidazol-2-yl)-7-(3-chloro-2-fluoro-6-(1H-tetrazol-1-yl)phenyl)-1-methyl-2,3-dihydroindolizin-5(1H)-one]
– | – | 0.0003 µM | 0.0015 µM | COC(=O)Nc1ccc(-c2cnc([C@@H]3C[C@@H](OC)c4cc(-c5c(-n6cnnn6)ccc(Cl)c5F)cc(=O)n43)[nH]2)cc1 [Example 152, Methyl (4-(2-((1R,3S)-7-(3-chloro-2-fluoro-6-(1H-tetrazol-1-yl)phenyl)-1-methoxy-5-oxo-1,2,3,5-tetrahydroindolizin-3-yl)-1H-imidazol-5-yl)phenyl)carbamate]
